Experiments:
Type in all cases: cell-based
[1] = molecular target: T1, PYR1 K59R A160G (Arabidopsis thaliana, UniProt O49686, A160G/K59R); assay: Y2H Pocket Library Screen (HAB1, X-gal)
T1 construct: expressed in transfected cells; host or cells: S. cerevisiae Y190
Procedure: (§1) The set of 475 mutant plasmids were individually transformed into the Y190 yeast two hybrid reporter strain co-transformed with pACT-HAB1, as previously described (Park et al., 2009). The yeast strains generated were arrayed into 96-well plates yielding what we refer to as the “pocket library”. The pocket library strains were spotted onto agar plates containing selective synthetic dextrose (minus Leu & Trp) medium that was supplemented with a single test compound at 100 μM. The pocket library strains were separately tested for responsiveness to the following compounds: dichlobenil, benzothiadiazole, mandipropamid, fludioxonil, and benoxacor. After incubating test plates at 30° C. for two days, colonies were chloroform lysed and stained to reveal β-galactosidase expression levels, using previously described methods (Park et al., 2009). Mutants displaying responsiveness to the test compound, if present, were identified by virtue of X-gal staining and then subjected to subsequent optimization efforts. Using this approach we identified mutations that conferred detectable sensitivity to the compounds tested (see entries labeled “Pocket Library Screens” in Table 1).

[2] = molecular target: T2, PYR1 K59R A89C (Arabidopsis thaliana, UniProt O49686, A89C/K59R); assay: Y2H Pocket Library Screen (HAB1, X-gal)
T2 construct: expressed in transfected cells; host or cells: S. cerevisiae Y190 yeast two-hybrid reporter strain
Procedure: as §1

[3] = molecular target: T3, PYR1 K59R E141K (Arabidopsis thaliana, UniProt O49686, E141K/K59R); assay: Y2H Pocket Library Screen (HAB1, X-gal)
T3 construct: expressed in transfected cells; host or cells: S. cerevisiae Y190 two-hybrid reporter strain
Procedure: as §1

[4] = molecular target: T4, PYR1 K59R E141Y (Arabidopsis thaliana, UniProt O49686, E141Y/K59R); assay: Y2H Pocket Library Screen (HAB1, X-gal)
T4 construct: expressed in transfected cells; host or cells: S. cerevisiae Y190 two-hybrid reporter strain
T4 sequence (O49686 whole entry K59R/E141Y): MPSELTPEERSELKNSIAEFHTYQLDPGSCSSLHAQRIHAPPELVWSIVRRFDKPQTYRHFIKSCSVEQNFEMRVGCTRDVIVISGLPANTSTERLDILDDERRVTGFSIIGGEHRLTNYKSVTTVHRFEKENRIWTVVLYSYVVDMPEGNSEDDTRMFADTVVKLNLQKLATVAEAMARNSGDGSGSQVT
T4 sequence (Q9CAJ0 23-511, further chain): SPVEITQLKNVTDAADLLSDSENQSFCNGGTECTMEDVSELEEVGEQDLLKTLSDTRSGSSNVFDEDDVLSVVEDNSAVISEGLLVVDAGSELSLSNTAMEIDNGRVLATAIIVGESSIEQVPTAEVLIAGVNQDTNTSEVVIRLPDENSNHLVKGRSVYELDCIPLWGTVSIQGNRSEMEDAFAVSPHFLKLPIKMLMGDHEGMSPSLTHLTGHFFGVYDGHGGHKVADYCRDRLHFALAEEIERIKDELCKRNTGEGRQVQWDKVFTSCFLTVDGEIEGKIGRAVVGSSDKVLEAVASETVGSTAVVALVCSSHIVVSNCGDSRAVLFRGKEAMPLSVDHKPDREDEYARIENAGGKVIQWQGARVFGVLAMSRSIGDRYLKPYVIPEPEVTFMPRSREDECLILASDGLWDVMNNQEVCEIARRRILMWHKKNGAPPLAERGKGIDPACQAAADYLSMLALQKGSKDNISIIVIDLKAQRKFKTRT
Procedure: as §1

[5] = molecular target: T5, PYR1 K59R F159A (Arabidopsis thaliana, UniProt O49686, F159A/K59R); assay: Y2H Pocket Library Screen (HAB1, X-gal)
T5 construct: expressed in transfected cells; host or cells: S. cerevisiae Y190 two-hybrid reporter strain
Procedure: as §1

[6] = molecular target: T6, PYR1 K59R F159C (Arabidopsis thaliana, UniProt O49686, F159C/K59R); assay: Y2H Pocket Library Screen (HAB1, X-gal)
T6 construct: expressed in transfected cells; host or cells: S. cerevisiae Y190 two-hybrid reporter strain
Procedure: as §1

[7] = molecular target: T7, PYR1 K59R F159I (Arabidopsis thaliana, UniProt O49686, F159I/K59R); assay: Y2H Pocket Library Screen (HAB1, X-gal)
T7 construct: expressed in transfected cells; host or cells: S. cerevisiae Y190 two-hybrid reporter strain
Procedure: as §1

[8] = molecular target: T8, PYR1 K59R F159L (Arabidopsis thaliana, UniProt O49686, F159L/K59R); assay: Y2H Pocket Library Screen (HAB1, X-gal)
T8 construct: expressed in transfected cells; host or cells: S. cerevisiae Y190
T8 sequence (O49686 whole entry K59R/F159L): as the sequence (O49686 whole entry K59R/E141Y) above, with Y141E, F159L counted along it
T8 sequence (Q9CAJ0 23-511, further chain): as the sequence (Q9CAJ0 23-511, further chain) above
Procedure: as §1

[9] = molecular target: T9, PYR1 K59R F159M (Arabidopsis thaliana, UniProt O49686, F159M/K59R); assay: Y2H Pocket Library Screen (HAB1, X-gal)
T9 construct: expressed in transfected cells; host or cells: S. cerevisiae Y190
Procedure: as §1

[10] = molecular target: T10, PYR1 K59R F159T (Arabidopsis thaliana, UniProt O49686, F159T/K59R); assay: Y2H Pocket Library Screen (HAB1, X-gal)
T10 construct: expressed in transfected cells; host or cells: S. cerevisiae Y190
Procedure: as §1

[11] = molecular target: T11, PYR1 K59R F159V (Arabidopsis thaliana, UniProt O49686, F159V/K59R); assay: Y2H Pocket Library Screen (HAB1, X-gal)
T11 construct: expressed in transfected cells; host or cells: S. cerevisiae Y190
Procedure: as §1

[12] = molecular target: T12, PYR1 K59R L117C (Arabidopsis thaliana, UniProt O49686, K59R/L117C); assay: Y2H Pocket Library Screen (HAB1, X-gal)
T12 construct: expressed in transfected cells; host or cells: S. cerevisiae Y190 two-hybrid reporter strain
Procedure: as §1

[13] = molecular target: T13, PYR1 K59R M158C (Arabidopsis thaliana, UniProt O49686, K59R/M158C); assay: Y2H Pocket Library Screen (HAB1, X-gal)
T13 construct: expressed in transfected cells; host or cells: S. cerevisiae Y190 two-hybrid reporter strain
T13 sequence (O49686 whole entry K59R/M158C): as the sequence (O49686 whole entry K59R/E141Y) above, with Y141E, M158C counted along it
T13 sequence (Q9CAJ0 23-511, further chain): as the sequence (Q9CAJ0 23-511, further chain) above
Procedure: as §1

[14] = molecular target: T14, PYR1 K59R M158I (Arabidopsis thaliana, UniProt O49686, K59R/M158I); assay: Y2H Pocket Library Screen (HAB1, X-gal)
T14 construct: expressed in transfected cells; host or cells: S. cerevisiae Y190 two-hybrid reporter strain
T14 sequence (O49686 whole entry K59R/M158I): as the sequence (O49686 whole entry K59R/E141Y) above, with Y141E, M158I counted along it
T14 sequence (Q9CAJ0 23-511, further chain): as the sequence (Q9CAJ0 23-511, further chain) above
Procedure: as §1

[15] = molecular target: T15, PYR1 K59R M158T (Arabidopsis thaliana, UniProt O49686, K59R/M158T); assay: Y2H Pocket Library Screen (HAB1, X-gal)
T15 construct: expressed in transfected cells; host or cells: S. cerevisiae Y190 two-hybrid reporter strain
Procedure: as §1

[16] = molecular target: T16, PYR1 K59R M158V (Arabidopsis thaliana, UniProt O49686, K59R/M158V); assay: Y2H Pocket Library Screen (HAB1, X-gal)
T16 construct: expressed in transfected cells; host or cells: S. cerevisiae Y190 two-hybrid reporter strain
T16 sequence (O49686 whole entry K59R/M158V): as the sequence (O49686 whole entry K59R/E141Y) above, with Y141E, M158V counted along it
T16 sequence (Q9CAJ0 23-511, further chain): as the sequence (Q9CAJ0 23-511, further chain) above
Procedure: as §1

[17] = molecular target: T17, PYR1 K59R T162K (Arabidopsis thaliana, UniProt O49686, K59R/T162K); assay: Y2H Pocket Library Screen (HAB1, X-gal)
T17 construct: expressed in transfected cells; host or cells: S. cerevisiae Y190
Procedure: as §1

[18] = molecular target: T18, PYR1 K59R T162W (Arabidopsis thaliana, UniProt O49686, K59R/T162W); assay: Y2H Pocket Library Screen (HAB1, X-gal)
T18 construct: expressed in transfected cells; host or cells: S. cerevisiae Y190
Procedure: as §1

[19] = molecular target: T19, PYR1 K59R T162Y (Arabidopsis thaliana, UniProt O49686, K59R/T162Y); assay: Y2H Pocket Library Screen (HAB1, X-gal)
T19 construct: expressed in transfected cells; host or cells: S. cerevisiae Y190
Procedure: as §1

[20] = molecular target: T20, PYR1 K59R V164K (Arabidopsis thaliana, UniProt O49686, K59R/V164K); assay: Y2H Pocket Library Screen (HAB1, X-gal)
T20 construct: expressed in transfected cells; host or cells: S. cerevisiae Y190
Procedure: as §1

[21] = molecular target: T21, PYR1 K59R V164Y (Arabidopsis thaliana, UniProt O49686, K59R/V164Y); assay: Y2H Pocket Library Screen (HAB1, X-gal)
T21 construct: expressed in transfected cells; host or cells: S. cerevisiae Y190 two-hybrid reporter strain
Procedure: as §1

[22] = molecular target: T22, PYR1 K59R V81I (Arabidopsis thaliana, UniProt O49686, K59R/V81I); assay: Y2H Pocket Library Screen (HAB1, X-gal)
T22 construct: expressed in transfected cells; host or cells: S. cerevisiae Y190 yeast two-hybrid reporter strain
Procedure: as §1

[23] = molecular target: T23, PYR1 K59R V83L (Arabidopsis thaliana, UniProt O49686, K59R/V83L); assay: Y2H Pocket Library Screen (HAB1, X-gal)
T23 construct: expressed in transfected cells; host or cells: S. cerevisiae Y190 yeast two-hybrid reporter strain
Procedure: as §1

[24] = molecular target: T24, PYR1 K59R A160G L117C (Arabidopsis thaliana, UniProt O49686, A160G/K59R/L117C); assay: Y2H Combinatorial Mutagenesis Screen I (HAB1, X-gal)
T24 construct: expressed in transfected cells; host or cells: S. cerevisiae Y190 two-hybrid reporter strain
Description: (§2) This screening approach yielded mutants at ligand contacting residues that alter sensitivity to specific ligands. We reasoned that receptor sensitivity could be improved by systematically constructing combinations of the best mutant variants identified in the first round of screening. To test this, we constructed mutant combinations using the strongest mutations identified for mandipropamid, benzothiadiazole, benoxacor or fludioxonil sensitivity. The mutations selected for combinatorial mutagenesis are listed in bold type in Table 1; The mutant combinations were constructed using the QuickChange Lightning Multi Site-Directed PCR Mutagenesis kit (Agilent, USA) using pBD-PYR1^K59R template DNA and mutagenic primers, essentially as previously described (Mosquna et al., 2011). The mutant combinations were sequence validated, introduced into the pACT-HAB1 Y190 reporter strain and then tested for responsiveness to a range of compound concentrations (100, 50, 25, 10, 1, 0.2, 0.1 or 0 μM each test compound). These efforts yielded double mutant receptor variants with improved sensitivity for the 4 compound/receptor pairs examined (see entries labeled “Combinatorial Mutagenesis Screen I” in Table 1).

[25] = molecular target: T25, PYR1 K59R A160G V164K (Arabidopsis thaliana, UniProt O49686, A160G/K59R/V164K); assay: as above
T25 construct: expressed in transfected cells; host or cells: S. cerevisiae Y190 two-hybrid reporter strain
Description: as §2

[26] = molecular target: T26, PYR1 K59R A89C A160G (Arabidopsis thaliana, UniProt O49686, A160G/A89C/K59R); assay: as above
T26 construct: expressed in transfected cells; host or cells: S. cerevisiae Y190 two-hybrid reporter strain
Description: as §2

[27] = molecular target: T27, PYR1 K59R A89C E141Y (Arabidopsis thaliana, UniProt O49686, A89C/E141Y/K59R); assay: as above
T27 construct: expressed in transfected cells; host or cells: S. cerevisiae Y190 two-hybrid reporter strain
Description: as §2

[28] = molecular target: T28, PYR1 K59R A89C L117C (Arabidopsis thaliana, UniProt O49686, A89C/K59R/L117C); assay: as above
T28 construct: expressed in transfected cells; host or cells: S. cerevisiae Y190 two-hybrid reporter strain
T28 sequence (O49686 whole entry K59R/A89C/L117C): as the sequence (O49686 whole entry K59R/E141Y) above, with A89C, L117C, Y141E counted along it
T28 sequence (Q9CAJ0 23-511, stated change not applied, further chain): as the sequence (Q9CAJ0 23-511, further chain) above
Description: as §2

[29] = molecular target: T29, PYR1 K59R A89C V164K (Arabidopsis thaliana, UniProt O49686, A89C/K59R/V164K); assay: as above
T29 construct: expressed in transfected cells; host or cells: S. cerevisiae Y190 two-hybrid reporter strain
Description: as §2

[30] = molecular target: T30, PYR1 K59R E141Y A160G (Arabidopsis thaliana, UniProt O49686, A160G/E141Y/K59R); assay: as above
T30 construct: expressed in transfected cells; host or cells: S. cerevisiae Y190 two-hybrid reporter strain
Description: as §2

[31] = molecular target: T31, PYR1 K59R L117C V164K (Arabidopsis thaliana, UniProt O49686, K59R/L117C/V164K); assay: as above
T31 construct: expressed in transfected cells; host or cells: S. cerevisiae Y190 two-hybrid reporter strain
Description: as §2

T1 sequence (O49686 whole entry K59R/A160G): as the sequence (O49686 whole entry K59R/E141Y) above, with Y141E, A160G counted along it
T1 sequence (Q9CAJ0 23-511, further chain): as the sequence (Q9CAJ0 23-511, further chain) above

Compound `c1ccc2snnc2c1` [Benzothiadiazole, benzothiadiazole] has a Threshold [1] of 100 µM, a Threshold [2] of 100 µM and a Threshold [3] of 100 µM. The Threshold [4] was 100 µM, the Threshold [5] was 100 µM and the Threshold [6] was 100 µM. For the same compound, the Threshold [7] was 100 µM, the Threshold [8] was 100 µM and the Threshold [9] was 100 µM. The Threshold [10] was 100 µM, the Threshold [11] was 100 µM and the Threshold [12] was 100 µM. The Threshold [13] was 100 µM, the Threshold [14] was 100 µM and the Threshold [15] was 100 µM. It also gave a Threshold [16] of 100 µM, a Threshold [17] of 100 µM and a Threshold [18] of 100 µM. It also gave a Threshold [19] of 100 µM, a Threshold [20] of 100 µM and a Threshold [21] of 100 µM. For the same compound, the Threshold [22] was 100 µM, the Threshold [23] was 100 µM and the Threshold [24] was 25 µM. The Threshold [25] was 5 µM, the Threshold [26] was 5 µM and the Threshold [27] was 0.2 µM. For the same compound, the Threshold [28] was 25 µM, the Threshold [29] was 0.2 µM and the Threshold [30] was 5 µM. It also gave a Threshold [31] of 100 µM.
